Results as given in PMC7333658, “Identification and Quantification of Novel Major Metabolites of the Steroidal Aromatase Inhibitor, Exemestane” (Drug Metabolism and Disposition, 2018).
Where “and” joins values, the source holds several entries; their conditions need not be identical. Identical values can stand only once.

Legend:
[1] = in vivo; cited from earlier work
[2] = ref Luo et al., 2018, cited from earlier work
[3] = UPLC-MS/MS quantification of EXE and its metabolites in plasma of subjects taking EXE; assay type: in vivo, human; settings: for Plasma Percentage of TEM (Mean ± S.E.): TEM = EXE + 17β-DHE + 17β-DHE-Gluc + 6-EXE-cys + 6-DHE-cys, calculated per subject, then mean of 132; for Plasma concentration, Mean ± S.E. / Plasma concentration, Range: n = 132 subjects; for Plasma concentration, Mean ± S.E.: 25 mg EXE daily orally for at least 28 days, sampled 4-6 hours after pill; for Plasma concentration, Range: 25 mg EXE daily orally, 4-6 hours after pill
Method: (§1) One hundred and thirty-two postmenopausal breast cancer patients (one Hispanic, two African Americans, two Asians, and 127 Caucasians; age range: 35–89 years) with ER+ breast tumors were recruited into this study from the Breast Oncology Clinic at the Penn State Hershey Cancer Institute. Approval was obtained from the Institutional Review Board at Penn State University with informed consent obtained from all subjects. Subjects took a single pill (25 mg) of EXE daily (orally) for at least 28 consecutive days and provided blood (10 ml) and urine (up to 50 ml) specimens between 4 and 6 hours after pill ingestion as described previously ([Luo et al., 2018]). Blood was separated by centrifugation at 1300g for 15 minutes at room temperature. Aliquoted plasma and buffy coat fractions of blood samples and aliquoted urine samples were stored at −80°C until analysis. As a control for EXE metabolism, specimens obtained from women not taking EXE who were recruited into other studies at Penn State University College of Medicine (Hershey, PA; n = 10) were also examined to exclude false positives ([Ashmore et al., 2013]).
To quantify in vivo levels of EXE and its metabolites, the sample preparation method was modified from that described earlier for metabolite identification. For EXE metabolite analysis in plasma, a 2.5-µl aliquot of each plasma sample was first spiked with 2.5 µl of a mixture of deuterium-labeled internal standards in methanol [D3-EXE (0.17 μM), D3-17β-DHE (1.7 μM), 17β-OH-EXE-d3-17-O-β-D-glucuronide (0.52 μM), D3-6-EXE-cys (0.06 μM), and D3-6-17β-DHE-cys (0.25 μM)]. Twenty microliters of pure methanol was then added to extract EXE and its metabolites and to precipitate proteins. After vortexing and subsequent centrifugation at 16,100g for 10 minutes at 4°C, 15 µl of the supernatant was transferred to a sample vial and mixed with 15 µl of water prior to analysis by UPLC-MS.
(§2) For the simultaneous quantification of EXE, 17β-DHE, 17β-DHE-Gluc, 6-EXE-cys, and 6-17β-DHE-cys, urine and plasma samples were prepared as described earlier. Using the same UPLC-MS system described earlier, UPLC was performed with solvent A (5 mM ammonium formate and 0.01% formic acid in water) and solvent B (100% acetonitrile) using the following conditions for both urine and plasma specimens: 0–1.5 minutes at 25% solvent B, a linear gradient to 52% solvent B for 1.5–2.5 minutes, 2.5–4.5 minutes at 52% solvent B, a linear gradient to 95% solvent B from 4.5 to 5 minutes, 5–9.5 minutes at 95% solvent B, followed by a linear gradient to initial conditions of 25% solvent B from 9.5 to 10 minutes. This was followed by a 1-minute run at 25% solvent B to equilibrate the column to initial conditions before the next sample injection. The flow rate was 0.4 ml/min from 0 to 5 minutes, 0.8 ml/min from 5 to 9.5 minutes, and back to 0.4 ml/min from 9.5 to 10 minutes. The injection volume of each prepared urine and plasma sample was 5 µl. The column temperature was 35°C. The Waters XEVO G2-S QTOF MS was operated in tandem mass spectrometry (MS/MS) mode, with the electrospray ionization probe operated in the positive-ion mode and a capillary voltage at 0.6 kV. The cone and desolvation gas flow rates were maintained at 50 and 800 l/h, respectively, and the collision gas flow rate was 0.1 l/h. The source and desolvation gas temperatures were 120°C and 500°C, respectively, and the dwell time for each ion was 300 ms.
(§3) The limits of quantification for EXE, 17β-DHE, 17β-DHE-Gluc, 6-EXE-cys, and 6-17β-DHE-cys were 2.1, 1.6, 1.2, 0.7, and 7.2 nM in plasma, respectively, and 2.1, 1.6, 6.3, 1.5, and 7.2 nM in urine, respectively. Standard curves were constructed by plotting the ratio of analyte peak area to peak area of the corresponding internal standard (described earlier) versus concentration of analyte standard. The concentrations of stock standards were 1000 ppm. […]

[4] = UPLC-MS/MS quantification of EXE and its metabolites in urine of subjects taking EXE; assay type: in vivo, human; settings: for Urine Percentage of TEM (Mean ± S.E.): TEM = EXE + 17β-DHE + 17β-DHE-Gluc + 6-EXE-cys + 6-DHE-cys, calculated per subject, then mean of 132; for Urine concentration, Mean ± S.E. / Urine concentration, Range: n = 132 subjects; for Urine concentration, Mean ± S.E.: 25 mg EXE daily orally for at least 28 days, sampled 4-6 hours after pill; for Urine concentration, Range: 25 mg EXE daily orally, 4-6 hours after pill
Method: as §1
For EXE metabolite analysis in urine, a 2.5-µl aliquot of each urine sample was first spiked with 2.5 µl of the same deuterium-labeled internal standard mixture described earlier. Ten microliters of 75% methanol was then added to extract EXE and its metabolites. After vortexing and subsequent centrifugation at 16,100g for 10 minutes at 4°C, 10 µl of the supernatant was transferred to a sample vial and mixed with 5 µl of water prior to analysis by UPLC-MS.
as §2
as §3, with “ppm. A serial dilution of standards at concentrations ranging from 1.6 nM to 1.7 μM, 1.6 nM to 1.7 μM, 1.0 nM to 2.1 μM, 0.7 nM to 12 μM, and 4.6 nM to 2.4 μM was used to establish standard curves for EXE, 17β-DHE, 17β-DHE-Gluc, 6-EXE-cys, and 6-17β-DHE-cys, respectively.” for “ppm.”

## CSc1ncnc2c1ncn2[C@@H]1O[C@H](CO)[C@@H](O)[C@H]1O [6-methylmercaptopurine riboside]
[1]
  Fold lower levels in GSTM1-null genotype than in carriers of one or two copies of GSTM1: 2 fold

## C=C1CC2C(CCC3(C)C(O)CCC23)C2(C)C=CC(=O)C=C12 (stereo not drawn) [17β-DHE, 17β-dihydro-EXE]
[2]; same women taking EXE
  Increase in plasma level with increasing numbers of the UGT2B17 deletion allele: 1.3 fold
[3]; plasma
  Fold lower average percentage of TEM than 17β-DHE-Gluc: 3 fold
  Plasma Percentage of TEM (Mean ± S.E.): 12% and 12 ± 1.2%
  Plasma concentration, Mean ± S.E.: 2.5 nM and 2.5 ± 0.19 nM
  Plasma concentration, Range: 0.11 to 14 nM
[4]; urine
  Urine Percentage of TEM (Mean ± S.E.): 0.14% and 0.14 ± 0.025%
  Urine concentration, Mean ± S.E.: 0.0066 nmol/mg creatinine and 0.0066 ± 0.0012 nmol/mg creatinine
  Urine concentration, Range: 0–0.099 nmol/mg creatinine

## C[C@]12CC[C@H]3[C@@H](CC(CSC[C@H](N)C(=O)O)C4=CC(=O)C=C[C@@]43C)[C@@H]1CC[C@@H]2O (stereo partly drawn) [6-17β-DHE-cys, 6-methylcysteinylandrosta-1,4-diene-17β-hydroxy-3-one]
[4]; female, human, in vivo
  Urine concentration range as printed in the discussion: 3.3 to 10000 pM

## C=C1C[C@H]2[C@@H]3CC[C@H](O[C@@H]4O[C@H](C(=O)O)[C@@H](O)[C@H](O)[C@H]4O)[C@@]3(C)CC[C@@H]2[C@@]2(C)C=CC(=O)C=C12 [17β-DHE-Gluc, 17β-hydroxy-EXE-17-O-β-D-glucuronide]
[2]; women taking EXE
  Decrease in plasma level with increasing numbers of the UGT2B17 deletion allele: up to 29 fold
[3]; plasma
  Plasma Percentage of TEM (Mean ± S.E.): 36% and 36 ± 1.8%
  Plasma concentration, Mean ± S.E.: 30 nM and 30 ± 4.6 nM
  Plasma concentration, Range: 0.32 to 358 nM
[4]; urine, 17β-DHE-Gluc is the lower
  Ratio of mean combined cysteine conjugates (6-EXE-cys plus 6-17β-DHE-cys) to 17β-DHE-Gluc in urine: 5.5 fold
[4]; urine
  Urine Percentage of TEM (Mean ± S.E.): 21% and 21 ± 1.6%
  Urine concentration, Mean ± S.E.: 1.4 nmol/mg creatinine and 1.4 ± 0.37 nmol/mg creatinine
  Urine concentration, Range: 0.0068–45 nmol/mg creatinine

## C[C@]12C=CC(=O)C=C1C(CSC[C@H](N)C(=O)O)C[C@@H]1[C@@H]2CC[C@]2(C)C(=O)CC[C@@H]12 (single isomer, unassigned) [6-EXE-cys, 6-methylcysteinylandrosta-1,4-diene-3,17-dione]
[3]; female, human, in vivo
  Share of the total mean cysteine conjugate levels in plasma: 79%
[4]; female, human, in vivo
  Share of the total mean cysteine conjugate levels in urine: 77%
  Urine concentration range as printed in the discussion: 3.3 to 50000 pM

## C=C1C[C@@H]2[C@H](CC[C@]3(C)C(=O)CC[C@@H]23)[C@@]2(C)C=CC(=O)C=C12 [EXE, Exemestane]
[3]; plasma
  Plasma Percentage of TEM (Mean ± S.E.): 17% and 17 ± 0.91%
  Plasma concentration, Mean ± S.E.: 14 nM and 14 ± 1.7 nM
  Plasma concentration, Range: 0 to 105 nM
[4]; urine
  Urine Percentage of TEM (Mean ± S.E.): 1.7% and 1.7 ± 0.20%
  Urine concentration, Mean ± S.E.: 0.21 ± 0.045 nmol/mg creatinine
  Urine concentration, Range: 0–3.2 nmol/mg creatinine
